Results as given in patent US6825230B2, “Spiro and dispiro 1,2,4-trixolane antimalarials” (Medicines for Malaria Venture MMV, priority 2002, dated 2004).
≈ marks a conversion by molar mass, not a printed value. Read-outs that look alike come from different tables or passages of the source.

Assays:
[1] = system: chloroquine-resistant K1 strain of P. falciparum; experiment: In vitro antimalarial semiautomated microdilution assay ([3H]-hypoxanthine incorporation), K1 strain; format: cell-based, Plasmodium falciparum; settings: for IC50: Plasmodium falciparum
Summary of the method: (§1)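 IC50 values come from Logit regression of [3H]-hypoxanthine uptake data. Parasites were intraerythrocytic P. falciparum forms taken from asynchronous stock cultures and tested by semiautomated microdilution.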

[2] = system: chloroquine-sensitive NF54 strain of P. falciparum; experiment: In vitro antimalarial semiautomated microdilution assay ([3H]-hypoxanthine incorporation), NF54 strain; format: cell-based, Plasmodium falciparum; settings: for IC50: Plasmodium falciparum
Summary of the method: as §1

[3] = system: ANKA strain of P. berghei; experiment: Single dose STI in vivo screen in infected mice; parameters: species or system Plasmodium berghei; settings: for Survival (days) 10 mg/kg po: single 10 mg/kg po in 3% ethanol and 7% Tween 80; for Survival (days) 10 mg/kg po / Survival (days) 10 mg/kg SSV po / Survival (days) 10 mg/kg sc: untreated 6-7 days; for Activity (%) 10 mg/kg po: single 10 mg/kg po in 3% ethanol and 7% Tween 80 on day 1 post-infection; for Activity (%) 10 mg/kg po / Activity (%) 10 mg/kg SSV po / Activity (%) 10 mg/kg sc: percent reduction in parasitemia on day 3; for Survival (days) 10 mg/kg SSV po: single 10 mg/kg po in SSV; for Activity (%) 10 mg/kg SSV po: single 10 mg/kg po in standard suspending vehicle (SSV) on day 1 post-infection; for Survival (days) 10 mg/kg sc: single 10 mg/kg sc in 3% ethanol and 7% Tween 80; for Activity (%) 10 mg/kg sc: single 10 mg/kg sc in 3% ethanol and 7% Tween 80 on day 1 post-infection
[4] = system: Schistosoma mansoni adult worms (49-day-old); experiment: Effect on adult schistosomes (49-day-old) in infected mice; format: in vivo; settings: single 400 mg/kg per os; for % reduction of adult worms growth at day 49 after per os application of 400 mg/kg, TWR (%): 49-day-old adults, total worm reduction rate; for Adult worms day 49, per os 400 mg/kg, DEAD WORM (%): percentage of dead worm in the liver
Procedure: Mice were infected with 100 Schistosoma mansoni cercariae on day 49 post-treatment. Each group was treated per os with OZ compounds at single doses of 200, 400, and 600 mg/kg. Untreated mice served as the control. All groups were killed 4 weeks after treatment and the liver and intestine were removed and separated. The liver and intestine were compressed and alive male and female worms could be seen and counted.

[5] = K1, 72 h, read-out: IC50 (ng/ml) K1, chloroquine-resistant K1 strain, 72 h incubation
[6] = NF54, 72 h, read-out: IC50 (ng/ml) NF54, chloroquine-sensitive NF54 strain, 72 h incubation
[7] = chloroquine-resistant K1 strain, 72 h incubation, read-out: IC50 (ng/ml) K1
[8] = chloroquine-sensitive NF54 strain, 72 h incubation, read-out: IC50 (ng/ml) NF54
[9] = chloroquine-sensitive NF54 strain, 72 h incubation

| SMILES | IC50 [1, 5] | Survival (days) 10 mg/kg po [3] | Activity (%) 10 mg/kg po [3] | Survival (days) 10 mg/kg SSV po [3] | Activity (%) 10 mg/kg SSV po [3] | Survival (days) 10 mg/kg sc [3] | Activity (%) 10 mg/kg sc [3] | % reduction of adult worms growth at day 49 after per os application of 400 mg/kg, TWR (%) [4] | Adult worms day 49, per os 400 mg/kg, DEAD WORM (%) [4] | other results |
| --- | --- | --- | --- | --- | --- | --- | --- | --- | --- | --- |
| NC(=O)OC1CCC2(CC1)OOC1(O2)C2CC3CC(C2)CC1C3 (stereo not shown) [OZ107] | 1 ng/mL (≈ 0.00309 µM) | 6.3 days | 70% | 6.3 days | 32% | 8.0 days | 99.74% | 26% | 4% | IC50 [2, 6]: 0.3 ng/mL (≈ 0.000928 µM) |
| CCN(CC)CC[C@H]1CC[C@]2(CC1)OOC1(O2)C2CC3CC(C2)CC1C3 (stereo partly shown) [OZ126] |  | 7.0 days | 55% | 6.7 days | 72% | 8.5 days | 99.44% | 0% | 9% | IC50 [1, 7]: 0.2 ng/mL (≈ 0.00055 µM); IC50 [2, 8]: 0.5 ng/mL (≈ 0.00138 µM) |
| O=C1COC2(CCC3(CC2)OOC2(O3)C3CC4CC(C3)CC2C4)OC1 (stereo not shown) [OZ130, Adamantane-2-spiro-3′-11′-oxo-1′,2′,4′,9′,13′-pentaoxadispiro[4.2.5.2]pentadecane] | 0.62 ng/mL (≈ 0.00177 µM) | 9.0 days | 98.8% | 8.0 days | 98.9% | 7.3 days | 98.6% | 0% | 8% | IC50 [2, 6]: 0.94 ng/mL (≈ 0.00268 µM) |
| O=[N+]([O-])c1cccc(C2(c3cccc([N+](=O)[O-])c3)OOC3(O2)C2CC4CC(C2)CC3C4)c1 (stereo not shown) [OZ105, Adamantane-2-spiro-3′-5′,5′-bis(3′-nitrophenyl)-1′,2′,4′-trioxolane] | 5.4 ng/mL (≈ 0.0123 µM) | 5.7 days | 16% | 5.7 days | 0% | 6.3 days | 28% | 8% | 0% |  |
| OC12CC3CC(C1)C1(OOC4(CCC5(CC4)OCCO5)O1)C(C3)C2 (stereo not shown) [OZ153, 5-Hydroxyadamantane-2-spiro-3′-1′,2′,4′,9′,12′-pentaoxadispiro[4.2.4.2]tetradecane] |  | 6.3 days |  |  |  |  |  |  | no dead | IC50 (ng/ml) K1 ([1]; chloroquine-resistant K1 strain, 72 h incubation): 7.7 ng/mL (≈ 0.0228 µM); IC50 (ng/ml) NF54 [2, 9]: 19 ng/mL (≈ 0.0561 µM); Activity (%) 10 mg/kg po ([3]; 10 mg/kg): 15%; Survival (days) 10 mg/kg SSV po ([3]; 10 mg/kg): 7.0 days; Activity (%) 10 mg/kg SSV po ([3]; 10 mg/kg): 23%; Survival (days) 10 mg/kg sc ([3]; 10 mg/kg): 6.3 days; Activity (%) 10 mg/kg sc ([3]; 10 mg/kg): 20% |
| O=C([C@H]1CC[C@]2(CC1)OOC1(O2)C2CC3CC(C2)CC1C3)N1CCN(c2ccccc2)CC1 (stereo partly shown) [OZ140] | 5.9 ng/mL (≈ 0.013 µM) | 6.0 days | 0% | 6.3 days | 8% | 7.0 days | 60% | 0% | 3% | IC50 [2, 6]: 8.2 ng/mL (≈ 0.0181 µM) |
| C1=C(c2ccccc2)CCC2(C1)OOC1(O2)C2CC3CC(C2)CC1C3 (stereo not shown) [OZ226, Adamantane-2-spiro-3′-8′-phenyl-1′,2′,4′-trioxaspiro[4.5]dec-7′-ene] | 4 ng/mL (≈ 0.0118 µM) | 5.0 days | 0% | 5.3 days | 0% | 11.0 days | 99.92% | 52% | 0% | IC50 [2, 6]: 4 ng/mL (≈ 0.0118 µM) |
| O=C(OC[C@H]1CC[C@]2(CC1)OOC1(O2)C2CC3CC(C2)CC1C3)N1CCN(c2ccccc2)CC1 (stereo partly drawn) [OZ148, cis-Adamantane-2-spiro-3′-1′,2′,4′-trioxaspiro[4.5]decane-8′-methyl 4-phenylpiperazine-1-carboxylate] |  | 7.3 days | 38% | 7.7 days | 58% | 6.3 days | 21% | 25% | 0% | IC50 [1, 7]: 17 ng/mL (≈ 0.0352 µM); IC50 [2, 8]: 16 ng/mL (≈ 0.0332 µM) |
| O=C(C[C@H]1CC[C@]2(CC1)OOC1(O2)C2CC3CC(C2)CC1C3)N1CCOCC1 (stereo partly shown) [OZ189] | 1.7 ng/mL (≈ 0.00434 µM) | 9.3 days | 95% | 9.0 days | 99.79% | 10.7 days | 98% | 0% | 30% | IC50 [2, 6]: 3 ng/mL (≈ 0.00766 µM) |
| CC1(C)COC(c2ccc([C@H]3CC[C@]4(CC3)OOC3(O4)C4CC5CC(C4)CC3C5)cc2)=N1 (stereo partly shown) [OZ154] | 5 ng/mL (≈ 0.0114 µM) |  |  |  |  |  |  | 58% | 0% | IC50 (ng/ml) NF54 [2, 9]: 6.1 ng/mL (≈ 0.0139 µM); Survival (days) 10 mg/kg po ([3]; 10 mg/kg): 14.7 days; Activity (%) 10 mg/kg po ([3]; 10 mg/kg): 99.74%; Survival (days) 10 mg/kg SSV po ([3]; 10 mg/kg): 8.7 days; Activity (%) 10 mg/kg SSV po ([3]; 10 mg/kg): 81%; Survival (days) 10 mg/kg sc ([3]; 10 mg/kg): 7.7 days; Activity (%) 10 mg/kg sc ([3]; 10 mg/kg): 59% |
| O=C(O)C1CCC2(CC1)OOC1(O2)C2CC3CC(C2)CC1C3 (stereo not shown) [OZ72] |  |  |  |  |  |  |  | 0% |  | Adult worms day 49, per os 400 mg/kg, DEAD WORM (%) ([4]; listed as OZ 72): 10% |
| OC1(c2ccc(F)cc2)CCC2(CC1)OOC1(O2)C2CC3CC(C2)CC1C3 (stereo not shown) [OZ76] |  |  |  |  |  |  |  | 32% | 0% |  |
| CCS(=O)(=O)N1CCC2(CC1)OOC1(O2)C2CC3CC(C2)CC1C3 (stereo not shown) [OZ79] |  |  |  |  |  |  |  | 4% | 0% |  |
| c1ccc(C2CCC3(CC2)OOC2(O3)C3CCCC2CCC3)cc1 (stereo not shown) [OZ67] |  |  |  |  |  |  |  | 38% | 0% |  |
| CC1(C)COC2(CCC3(CC2)OOC2(O3)C3CCCC2CCC3)OC1 (stereo not shown) [OZ68] |  |  |  |  |  |  |  | 17% | 0% |  |
| Clc1ccc(C2(c3ccc(Cl)cc3)OOC3(O2)C2CC4CC(C2)CC3C4)cc1 (stereo not shown) [OZ43] |  |  |  |  |  |  |  | 1% | 0% |  |
| CC(=O)N1CCC2(CC1)OOC1(O2)C2CC3CC(C2)CC1C3 (stereo not shown) [OZ49] |  |  |  |  |  |  |  | 17% | 10% |  |
